For series [1], the system named is 27mer DNA template. Description: Template-driven ligation of tetrazine and cyclopropene oligonucleotide probes (fluorescence). It counts as biochemical. Particulars: for change in fluorescence in the absence of template: 1 μM probes, no template. The method, then: Tetrazine and cyclopropene-modified oligonucleotide probes were ligated in the presence of a DNA or RNA template at a 1:1:1 ratio. Reactions were done in varying solution and temperature conditions, as indicated. Main hybridization buffer was 50 mM MOPS at pH 7.5, 250 mM NaCl. Ligation reactions with a mismatched DNA template were performed in 5 mM MgCl2 in standard 1× Tris-borate buffer (purchased as 10× UltraPure TBE from Invitrogen: 1.0 M Tris pH 8.4, 0.9 M Boric acid, 10 mM EDTA).
Ligation reactions were done in standard 96 fluorescence well plates using SpectraMax GeminiXS (Molecular Devices). Temperature was set by the instrument. Where indicated by standard deviations, experiments were performed multiple times. In order to avoid any secondary structure artifacts, DNA or RNA template with added tetrazine probe was first heated to 90° C. and crash-cooled on ice for 2 min right before the experiment. Each well was filled with a total of 100 μL reaction solution, and reactions were timed from the addition of the cyclopropene probe as the last step before starting the measurements. Wells were scanned every 20-60 s depending on the speed of the reactions by using 485 nm excitation and 538 nm emission with the cutoff set at 495 nm. Control reactions without template were done in parallel each time. Buffer-only well intensities were subtracted from the measured raw data before analysis. Data was analyzed using GraphPad Prism 6.0 by applying a nonlinear fit of a one-phase association to each curve where fluorescein signal during reaction was measured.

The nature of series [2]: Oligonucleotide probe stability in buffer and cell media. The class given is physicochemical. Particulars: over a 35-hour period.
Series [3] has as its system 27mer DNA template. Description: Melting temperatures of DNA template with probes and ligation products. It counts as physicochemical. Particulars: hybridization target against 27mer template; 250 mM NaCl in buffer; 1 μM each oligonucleotide. As for the experimental part: Melting temperature of probes and ligation products in hybridization buffer (50 mM MOPS pH 7.5, 250 mM NaCl) were measured using a Beckman-Coulter DU 640 spectrophotometer equipped with a high performance temperature controller and micro auto six-cell holder. Samples at 1 μM concentration of each oligonucleotide were heated to 90° C. and slowly cooled to RT over 1-1.5 h before the measurements. Melting temperature values were obtained by cooling samples from 90° C. to 20° C. at the rate of 1° C./min and measuring at 1° C. increments with each read averaged over 1 s.

In series [4] the test system is LS174T human colon cancer cells. Description: Simultaneous imaging of two metabolically incorporated unnatural sugars and cross reactivity. It counts as cell-based. The method, then: (§1) The SKBR3 and LS174T cells were incubated for two days in the presence of 100 μM of Ac4ManNCyc and/or 50 μM Ac4GlcNAz on a Lab-Tek chamber slide maintained in cDMEM medium. Treatment of cells with tunicamycin was done by preparing a 0.2 mg/mL stock in DMSO, which was diluted to a final working concentration of 1.2 μM tunicamycin in cDMEM (0.5% DMSO). Cells were washed 3× with phosphate-buffered saline (PBS) and incubated for 1 hour at 37° C. in 10 μM tetrazine-BODIPY TMR-X, 10 μM tetrazine-Alexa flour 488 and/or 15 μM dibenzocyclooctyne (DIBO)-Alexa Fluor 647 in cDMEM. The media was aspirated, and cells were washed twice with PBS before imaging. All photos were collected with an Olympus FV1000 confocal microscope using ImageJ 1.45j software package.
Finally, we tested whether or not we could simultaneously image two different metabolically incorporated unnatural sugar derivatives, Ac4ManNCyc and tetraacetylated N-azidoacetylgalactosamine (Ac4GalNAz). […] Recent experimental work has shown that alkenes and azides can be mutually orthogonal to each other, even when using highly strained trans-cyclooctenes. Additionally, the Houk group has calculated that methyl-cyclopropene handles, such as those we have previously developed, should be mutually orthogonal to azide cyclooctyne reactions. We incubated LS174T human colon cancer cells with 100 μM Ac4ManNCyc and Ac4GalNAz for 2 days. After incubation, we sequentially stained the cells with 10 μM tetrazine-Alexa Fluor 488 and 15 μM dibenzocyclooctyne (DIBO) 647. […] Similar results were obtained with the SKBR3 cell line. […] The ability to simultaneously label two different metabolically incorporated molecules using live-cell compatible inverse-Diels-Alder and Huisgen reactions expands the capabilities of bioorthogonal metabolic imaging.

Series [5] can be described thus: Aqueous stability of methyl-cyclopropenes by 1H NMR. The class given is physicochemical. The note with it: for aqueous stability: aqueous deuterated solutions (D2O/DMSO-d6=4:1). The text has this: (§2) After synthesizing the new cyclopropene mini-tags, we next sought to compare their reactivity with tetrazines through inverse Diels-Alder cycloaddition. Additionally, we also assayed their aqueous stability, since methyl-cyclopropene tags are envisioned to find application in bioorthogonal coupling reactions. In order to monitor kinetics, we reacted eight representative methyl-cyclopropenes with 1-methyl-4-aryl tetrazine under pseudo-first order conditions, and tracked the reaction of tetrazine by monitoring the disappearance of the characteristic absorption at 530 nm, similar to previous reports. For stability experiments, we incubated methyl-cyclopropenes in aqueous deuterated solutions (D2O/DMSO-d6=4:1) as indicated.

Series [6] in a line: Reactivity of methyl-cyclopropene mini-tags with tetrazine, pseudo-first order. The class given is physicochemical. The note with it: for rate of reaction with tetrazines (in words): aqueous solvent.
From the text: as §2

The nature of series [7]: Storage stability of cyclopropene derivatives. The class given is physicochemical. The note with it: for storage stability at −20° C.: stored at −20° C.
The test system of the next series is SKBR3 cells. As to the kind of experiment: Live-cell microscopy of metabolically incorporated cyclopropene sugar. It counts as cell-based, human. The note with it: glycosylation inhibitors or 20 mM ManNAc as competitive substrate. The method, then:
SKBR3 and LS 174T cells were grown in cDMEM media supplemented with 10% fetal bovine serum, 1% L-glutamine, 1% penicillin/streptomycin. Cells were incubated in 5.0% carbon dioxide, 95% humidity at 37° C. Generally, cells were grown in T-75 tissue culture flasks, seeded at densities between 500,000 and 750,000 cells per flask (cells were quantified with the Life Technologies Countess automated cell counter). The cells were trypsinized with TrypLE Express and resuspended in cDMEM. Cells were allowed to incubate for two days before supplementing with Ac4ManNCyc (N-cyclopropeneacetylmannosamine) or Ac4GlcNAz (N-azidoacetylglucosamine). The cells were then analyzed via confocal microscopy and flow cytometry as described below.
as §1
In order to determine if Ac4ManNCyc was incorporated effectively by cells, we incubated adherent human breast cancer (SKBR3) and colon cancer (LS174T) cell lines with 100 μM Ac4ManNCyc for 48 hours in cell media and serum. After incubation, cells were thoroughly washed and then reacted for 1 hour with 10 μM of fluorogenic Alexa Fluor 488 tetrazine. After a second wash, cells were imaged by confocal microscopy (Olympus FV1000). […] In order to ensure that the staining was due to glycan uptake of the probe, we also performed controls by exposing cells to 100 μM Ac4ManNCyc and inhibiting uptake by using glycosylation inhibitors (ie. tunicamycin and αBnGalNAc) or 20 mM of ManNAc as a competitive substrate.^[14] […] These experiments provide evidence that the staining patterns are reporting on glycosylation and uptake of the unnatural cyclopropene mannosamine. We also performed additional studies using flow cytometry to quantitate the relative uptake of sugars that corroborated the imaging data.

Series [8] can be described thus: Reaction rate determination of cyclopropenes with tetrazine 3. It counts as physicochemical. The method, then:
A tetrazine 3 stock solution was prepared in DMSO and used to prepare tetrazine solutions at 0.6 mM final concentration in 12% v/v DMSO in ddH2O. Reactions were initiated with excess cyclopropene at final concentrations of 6.0, 8.0, and 10.0 mM. The disappearance of the tetrazine absorption peak at 520 nm was tracked over the reaction timeframe by measuring the absorption spectra using a NanoDrop 2000c spectrophotometer (Thermo Scientific). Samples were placed in a quartz cuvette with 10-mm pathlength and stirred at the maximum speed setting of the instrument. The temperature was uncontrolled by the instrument for room temperature (20° C.) measurements, and set and equilibrated at 37° C. for the higher temperature experiments.
Absorption spectra were measured manually over time. Absorption peak signal was taken as the average of measurements at 519-521 nm. Baseline signal was determined as the sloping line connecting the measured background levels preceding and following the tetrazine peak (410-430 nm and 590-610 nm, respectively). Final peak intensity value was taken as the signal above the baseline. Reaction rates were obtained by fitting the exponential decays of tetrazine peak absorption intensity as a pseudo first order reaction. Nonlinear data fits were performed with GraphPad Prism. Tetrazine reactions with cyclopropene carbamate 5 were carried out at 20 and 37° C. (data points and corresponding fitted curves at 20° C. in FIG. 51, 37° C. in FIG. 2c). Tetrazine reactions with cyclopropene carboxamide 2 were done at 37° C. ([…]. A representative comparison fit is shown for cyclopropenes 5 and 2 at 8.0 mM concentration reacting at 37° C. with 0.6 mM tetrazine.

These results are taken from patent US9533957B2, “Tetrazines and method of synthezising the same” (The Regents of the University of California, priority 2012, dated 2017).

Regarding “13merFl5′tet: 5′-tetrazine-/5AmMC6//iFluorT/CG ATG GCG TCA A-3′ (SEQ ID NO:4) (DNA CGATGGCGTCAA; 5' tetrazine, amino C6 linker, internal fluorescein-dT, chemistry not fully specified)”, the “change in fluorescence in the absence of template” value with 27mer DNA template [1] (listed as 13merF15′tet) is “no appreciable change in fluorescence over time”; in the series on 27mer DNA template [1] (listed as Fluorogenic tetrazine probe), “does not turn on”. Also, the “increase in the peak emission intensity” value in the series with 27mer DNA template [1] (reaction with the cyclopropene probe in the presence of a DNA template) was 9.3 fold. In addition, the autohydrolytic turn-on result in series [2] is “minimal”. Moreover, in the series on 27mer DNA template [3], the “Melting T” value was 57.4 °C.

Consider `CC(=O)OC[C@H]1OC(OC(C)=O)[C@H](NC(=O)CN=[N+]=[N-])[C@@H](OC(C)=O)[C@H]1OC(C)=O` (stereo partly drawn) [Ac4GalNAz, tetraacetylated N-azidoacetylgalactosamine, reference compound], for which the “cell surface staining after co-incubation of both sugars” value in series [4] (100 μM, 2 days, stained with 10 μM tetrazine-Alexa Fluor 488 and 15 μM DIBO 647) was “cell surface staining in both the fluorescent channels”. Moreover, the “cross reactivity: surface staining with tetrazine-Alexa Fluor 488” value in [4] (cells incubated with only this sugar) is “minimal surface staining”. As for `CC1=CC1/C=C/C(=O)O` (stereo not drawn) [Compound 13], the aqueous stability result in [5] was “unstable to incubation in aqueous solvent at 37 °C”. On to `CC1=CC1/C=C/C(=O)NCCO` (stereo not drawn) [Compound 14], for which, in series [5], the aqueous stability entry is reported as “greatly improved stability”. In addition, the “rate of reaction with tetrazines (in words)” value in [6] is recorded as “significantly lowered the rate of reaction with tetrazines”. `CC1=CC1/C=C/CO` (stereo not drawn) [Compound 16]: the “time to complete decomposition” value in series [5] (D2O/DMSO-d6=4:1 at room temperature) was 10.5 h. In addition, the aqueous stability entry in series [5] is listed as “unstable in aqueous solution”. Besides, in [6], the “rate of reaction with tetrazines (in words)” value is reported as “greatly increased the reaction rate”. Moreover, in series [7], the “storage stability at −20° C.” value was “not stable to long-term storage”.

In the case of `CC(=O)N[C@H]1[C@@H](O)[C@H](O)[C@@H](CO)O[C@@H]1O` [ManNAc], in the series on SKBR3 cells, the “effect on staining of cells exposed to 100 μM Ac4ManNCyc” value (from here on “effect on staining of cells exposed”) is “lowered fluorescent signal”. Consider `CC1=C([Si](C)(C)C)C1C=O` (stereo not drawn) [cyclopropen aldehyde 11], for which the “storage stability at −20° C.” value in series [7] was “slowly degrading over 48 hours”.

On to `CC1=CC1C(N)=O` (stereo not drawn) [cyclopropene 2, 2-methylcycloprop-2-enecarboxamide], for which the “second order rate constant” value in series [8] (37° C., water/DMSO (12% DMSO by volume)) stood at 0.137 ± 0.004 M⁻¹ s⁻¹. In series [7], the long-term storage stability result is recorded as “could be stored for extended periods of time without degradation”. As to `CC1=C([Si](C)(C)C)C1CN` (stereo not drawn) [cyclopropene amine 3], the long-term storage stability result in [7] was “not amenable long-term storage”. On the same count and under the same terms, then `CC1=C([Si](C)(C)C)C1CN=[N+]=[N-]` (stereo not drawn) [cyclopropene azide 2], with “not amenable long-term storage”. Consider `CC(=O)N[C@H]1[C@@H](OCc2ccccc2)O[C@H](CO)[C@H](O)[C@@H]1O` [αBnGalNAc], for which the “effect on staining of cells exposed” value in the series on SKBR3 cells is listed as “severely diminished staining”. With cyclopropene carbamate, in series [6] (previous studies with faster reacting unsubstituted tetrazine), the “rates of cycloaddition with unsubstituted tetrazine relative to methyl-tetrazine” value was 36 fold faster. In addition, the “rate of cycloaddition relative to cyclopropene amide 1” value in [8] (reacting with tetrazine 3 in aqueous solution) is on record as “approximately one-hundred times faster”. Turning to tunicamycin, in the series on SKBR3 cells, the “effect on staining of cells exposed” value was “severely diminished staining”.
